Results reported in article PMC5662925, “Selective Targeting of Bromodomains of the Bromodomain-PHD Fingers Family Impairs Osteoclast Differentiation” (ACS Chemical Biology, 2017).

Tests used:
[1] = molecular target: BRD4(1) (Homo sapiens, UniProt O60885); test: Temperature shift assay (ΔTm); assay type: binding; details: 10 µM compound
[2] = molecular target: T1, BRPF2 (Homo sapiens, UniProt O95696); test: Isothermal titration calorimetry (ITC); assay type: binding; details: ITC data
T1 construct: All recombinant bromodomains were expressed as described in Filippakopoulos et al; made in house
T1 sequence (O95696 562-666 limits assumed): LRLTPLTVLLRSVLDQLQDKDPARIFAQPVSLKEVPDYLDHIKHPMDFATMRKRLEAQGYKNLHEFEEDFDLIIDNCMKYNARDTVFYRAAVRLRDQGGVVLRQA

[3] = system: primary murine bone marrow cells differentiated with RANKL; test: Murine osteoclast differentiation, TRAP stain; assay type: cell-based, mouse
Excerpt: Epigenetic mechanisms play an important role in patterning and differentiation processes, and BRPF and its associated HATs have been particularly associated with differentiation of hematopoietic cells. Given our interest in bone biology, and the hematopoietic origin of the osteoclast, we investigated the potential role of the targeted bromodomains in osteoclastogenesis in mouse and human cells. Bone marrow mononuclear cells were isolated from wild-type mice, cultivated for 5 days in the presence of CSF-1, and replated in the presence of RANKL for differentiation into osteoclasts,[28] either with DMSO as a control or with varying doses of the BRPF inhibitors. […] To understand the molecular basis for this observation, we investigated the expression of several osteoclast marker genes using qPCR. […] To further investigate other osteoclast-specific effects of the BRPF inhibitors on gene transcription, we profiled genome-wide expression with Illumina MouseWG-6 v2.0 Expression BeadChips at different time points.

[4] = system: osteoclast marker genes (TRAP, CATK, CA2, NFATC1, OC-STAMP) in murine BMCs; test: qPCR of osteoclast marker genes in murine BMCs; assay type: cell-based, mouse; details: 10 ng/mL RANKL, 1 μM and 2 μM, 0-3 days
[5] = system: NFATC1 protein level in murine BMCs; test: Western blot of NFATC1 in murine BMCs; assay type: cell-based, mouse; details: 10 ng/mL RANKL, 1 μM and 2 μM
Excerpt: Figure 5 BRPF1B binding partners and effect of BRPF bromodomain inhibition on gene transcription during mouse osteoclastogenesis. […] The color of the circle represents the absolute spectral counts observed for the prey proteins. The circle size indicates the quantitative enrichment of a prey across all baits tested while the estimated FDR for the interaction is shown as the color of the circle edge. (B) Inhibition of murine osteoclast differentiation by panBRPF bromodomain inhibition. […] Bar scale indicates 200 μm. […] Data were normalized to day 0 of RANKL treatment. […] LaminB1 was used as a loading control.
Murine osteoclast-like cells were PBS washed, homogenized and lysed in RIPA buffer (50 mM Tris-HCl, pH 7.4; 150 mM NaCl; 1% NP-40; 0.5% Na-deoxycholate; 0.1% SDS; 2 mM EDTA; 10 mM NaF) containing protease inhibitors (Pierce, according to manufacturer’s specifications) with a 1 mL syringe and a 23-gauge needle. After centrifugation at 15 000 rpm at 4 °C for 10 min, supernatants were frozen at −80 °C. Protein concentrations were assayed using a Pierce BCA Kit, and 30 μg of protein per lane was subjected on 10% SDS gel. […] Absorbance was measured at 440 nm.

[6] = system: murine monocytic RAW246.7 cells; test: Proliferation / cell count of RAW cells; assay type: cell-based, mouse; details: 72 h treatment, 10 µM, n = 4, t-test p = 0.73
Procedure: Supplementary Figure 4: Inhibition of murine osteoclast differentiation. A) TRAP stain of primary murine bone marrow cells (BMCs) differentiated into osteoclasts for 3 days with RANKL plus either the treatment with DMSO or NIL57 at 1 µM. Bar scale indicates 200 µm. […]
treated bone marrow cells after 1, 2 and 3 days of differentiation as compared to bone marrow cells before RANKL treatment start. C.) Count of RAW cells after 72 h treatment […]
content of primary mouse BMCs treated for 0, 1, 2 and 3 days with either without or with 1

[7] = system: human osteoclast-like cells on bone mineral substrate; test: Bone resorption, Osteosurface assay (hydroxyapatite); assay type: cell-based
Excerpt: Dentine pits were imaged with confocal microscopy.

[8] = system: MMP9 secretion by human RANKL-induced osteoclasts; test: MMP9 ELISA of human osteoclast supernatant; assay type: cell-based; details: 1.25 μM, 7 days or 11 days
[9] = system: RANKL-induced expression of Ppap2a and SphK1; test: Microarray genome-wide expression in murine BMCs; assay type: cell-based, mouse; details: 2 μM
Procedure: (A) Heat map of the top 25 significant differentially expressed genes between DMSO and OF-1-treated BMCs based on sorted average p-value for the time points 48 and 72 h. Red indicates higher; blue indicates lower expression. See also, Supporting Information Figures 3 and 4.
Murine bone marrow stem cells were differentiated into osteoclast-like cells as described above. Cells were PBS-washed and lysed in RLT-Buffer (including 2-Mercaptoethanol; Qiagen, UK), and RNA was isolated via RNeasy Plus Mini Kit (Quiagen, UK). After confirmation of RNA quality (RIN = 2 ± 0.1), cDNA synthesis of approximately 1000 ng of RNA with a High Capacity cDNA Reverse Transcription Kit (Applied Biosystems, UK) was carried out. A total of 500 ng/μL cDNA was subjected to MouseWG-6 v2.0 Expression BeadChips (Illumina) at the Department of Pathology, University of Cambridge. Microarray data are available in the ArrayExpress database (www.ebi.ac.uk/arrayexpress) under accession number E-MTAB-4155. Gene expression data underwent log2 transformation and quantile normalization. Genes were filtered based on their variation across the experiments, i.e., excluding genes with a standard deviation of expression lower than 0.1. For genes with multiple probes, only the highest variable probe was selected for further analysis. […]

[10] = system: human osteoclast-like cells on dentine slices; test: Bone resorption on dentine slices; details: 1 μM
[11] = system: human primary monocytes (PBMCs) differentiated with RANKL; test: Human osteoclast differentiation (TRAP-positive multinucleated cells)

| SMILES | ΔTm at 10 µM [1] | weaker potency for BRPF2 (vs BRPF1B) [2] | number of multinucleated TRAP positive cells [3] | expression of osteoclast marker genes (qPCR) [4] | NFATC1 protein level [5] | Count of RAW cells vs DMSO [6] | pit formation on hydroxyapatite (Osteosurface assay) [7] | MMP9 secretion [8] | RANKL-induced expression of Ppap2a and SphK1 [9] | resorption of dentine [10] | fusion into multinucleated osteoclast-like cells [11] |
| --- | --- | --- | --- | --- | --- | --- | --- | --- | --- | --- | --- |
| COc1cc2c(cc1NS(=O)(=O)c1ccc(Br)cc1C)n(C)c(=O)n2C [OF-1] | 2.1 °C | 5 fold | significant reductions | significant reductions | strong down-regulation | no significant difference | significant reduction | significant reductions | significantly down-regulated | complete block | completely suppress |
| COc1ccccc1C(=O)Nc1cc2c(cc1N1CCCC1)n(C)c(=O)n2C [PFI-4] | – | – | – | – | – | – | – | significant reductions | – | – | – |
